Reference: patent publication US9314031B2, “Plant growth regulation” (SYNGENTA PARTICIPATIONS AG, priority 2012, dated 2016)

What was measured:
summer barley (Pasadena) = test: Glasshouse trial, lodging of summer barley after leaf spray; type: in vivo; conditions: for % lodging 30 days after spray application: Summer-barley Pasadena, spray at growth stage 30
Text: (§1) A glasshouse trial was setup to compare growth regulation effects of trinexapac-ethyl, seaweed extract, and mixtures of trinexapac-ethyl and seaweed extract at various rates, on both summer barley (Pasadena) and winter rye (Reknit).
(§2) Each treatment was applied as a spray to the leaves of the plant at plant growth stage 30 (start of stem elongation).

Winter-rye Rekrut = test: Glasshouse trial, lodging of winter rye after leaf spray; type: in vivo; conditions: for % lodging 30 days after spray application: Winter-rye Rekrut, spray at growth stage 30
Text: as §1, §2

[1] = system: soybeans (Toliman, S40-F8); test: Glasshouse trial, Nitrogen Balance Index (Dualex) of soybeans after leaf spray; type: in vivo, soybean; conditions: for Nitrogen Balance Index 8 days after spray application: spray at growth stage 12
Text: A glasshouse trial was setup to compare crop enhancement effects of trinexapac-ethyl, seaweed extract, and mixtures of trinexapac-ethyl and seaweed extract at various rates, on two varieties of soybeans (Toliman, S40-F8)
Each treatment was applied as a spray to the leaves of the plant at plant growth stage 12 (trifoliolate leaf on the 2nd node unfolded). Assessments of the Nitrogen Balance Index (NBI) were made 8 days after spray application using a Dualex (Force-A, Orsay Cedex) device; NBI is a measure used to estimate the nitrogen and protein status of a plant.

[2] = system: soybeans (Toliman, S40-F8); test: Glasshouse trial, shoot length of soybeans after leaf spray; type: in vivo, soybean; conditions: for Shoot length 11 days after spray application: spray at growth stage 12
Text: A glasshouse trial was setup to compare growth regulation effects of trinexapac-ethyl, seaweed extract, and mixtures of trinexapac-ethyl and seaweed extract at various rates, on two varieties of soybeans (Toliman, S40-F8).
Each treatment was applied as a spray to the leaves of the plant at plant growth stage 12 (trifoliolate leaf on the 2nd node unfolded).

[3] = treatment 1: Moddus 100 g AI/ha
[4] = treatment 2: Moddus 200 g AI/ha
[5] = Soybean var. S40-F8, treatment 1: Moddus 200 g AI/ha
[6] = Soybean var. S40-F8, treatment 2: Moddus 100 g AI/ha
[7] = Soybean var. S40-F8, treatment 3: Moddus 50 g AI/ha
[8] = Soybean var. Toliman, treatment 1: Moddus 200 g AI/ha
[9] = Soybean var. Toliman, treatment 2: Moddus 100 g AI/ha
[10] = Soybean var. Toliman, treatment 3: Moddus 50 g AI/ha

## CCOC(=O)C1CC(=O)C(=C(O)C2CC2)C(=O)C1 (centres unmarked) [TXP, trinexapac-ethyl]
Summer barley (Pasadena); [3]
  % lodging 30 days after spray application: 10.0%
Summer barley (Pasadena); [4]
  % lodging 30 days after spray application: 6.7%
Summer barley (Pasadena); summer barley, summary of Table 3, all rates, compared to untreated control or TXP alone
  Effect on lodging, in words: reduces lodging compared to the control
Winter-rye Rekrut; [3]
  % lodging 30 days after spray application: 6.7%
Winter-rye Rekrut; [4]
  % lodging 30 days after spray application: 0.0%
Winter-rye Rekrut; winter rye, summary of Table 3, all rates, compared to untreated control or TXP alone
  Effect on lodging, in words: reduces lodging compared to the control
[1]; [5]
  Nitrogen Balance Index 8 days after spray application: 125.5
[1]; [6]
  Nitrogen Balance Index 8 days after spray application: 97.9
[1]; [7]
  Nitrogen Balance Index 8 days after spray application: 77.1
[1]; [8]
  Nitrogen Balance Index 8 days after spray application: 64.2
[1]; [9]
  Nitrogen Balance Index 8 days after spray application: 48.7
[1]; [10]
  Nitrogen Balance Index 8 days after spray application: 47.9
[1]; both soybean varieties, summary of Table 7, compared to untreated control or single components
  Effect on NBI, in words: increases NBI at high rate
[2]; [5]
  Shoot length 11 days after spray application: 34.5 cm
[2]; [6]
  Shoot length 11 days after spray application: 39.5 cm
[2]; [7]
  Shoot length 11 days after spray application: 45.8 cm
[2]; [8]
  Shoot length 11 days after spray application: 54.8 cm
[2]; [9]
  Shoot length 11 days after spray application: 59.3 cm
[2]; [10]
  Shoot length 11 days after spray application: 61.3 cm
[2]; both soybean varieties, summary of Table 5, all rates, compared to untreated control or TXP alone
  Effect on plant length, in words: reduces plant length compared to the control
